Measured values taken from patent publication US20230346884A1, “Molecular Targets for Modulation of Dissociative and Associative States” (The Board of Trustees of the Leland Stanford Junior …, priority 2020, published 2023).
“Also recorded” adds a separate entry of the source.

What was measured:
mouse = assay: Ketamine dose-effect relationship in mouse
Description: (2 mg/kg), lidocaine (topical), LSD ((+)-Lysergic acid diethylamide (+)-tartrate (2:1), 0.3 mg/kg), and diazepam (2 mg/kg). […] For anti-depressant effects, human doses are typically 0.3-1 mg/kg, and in mouse 3-10 mg/kg.

mice [1] = assay: Hot plate test
Description: Hot Plate Test: Mice were placed on the hot plate (Bioseb), which was set to 55° C. and surrounded by a clear circular perimeter. Mouse activity was recorded using two cameras from different angles. The experiment ended when the mouse jumped to escape or 90 seconds had elapsed. Care was taken to clean and dry the hot plate apparatus between animals. For optogenetic experiments, mice were connected to patch cords and then returned to a holding cage. Illumination began 30 seconds before mice were placed on the hot plate.

[2] = system: neurons throughout the brain; assay: Simultaneous recording from four Neuropixels probes with i.p. drug delivery
Description: Mice were anesthetized with isoflurane, carefully leveled in a stereotaxic apparatus and their scalp and periosteum were removed. A 3% hydrogen peroxide in saline solution was used to clean the surface of the skull. A custom stainless steel headbar was leveled on the skull and attached using clear dental cement. After the cement had dried, targeted probe entry sites were stereotaxically marked on the cement layer with a permanent marker (Day 1: “mPFC”, 2.3AP, 0.6 ML; “somatosensory”, −0.7AP, −4.0 ML; “retrosplenial”, −2AP, −1 ML; “subiculum”, −3.5AP, 2.14 ML; Day 2: “OFC”: 2.5AP, 1.5 ML; “mPFC”: 2.3AP, −0.6 ML; “retrosplenial”, −2AP, 1 ML; “thalamus”, −1.5AP, −1.7 ML). […] A 2 mm long insulated platinum-iridium wire was implanted centrally over the cerebellum, with the last several hundred microns bared to serve as an electrical reference.
Mice were acclimated to head fixation and the recording rig over several days before recording. Several hours before recording, mice were anesthetized for approximately 30 minutes each while small 1 mm craniotomies were made over four pre-marked areas. Craniotomies were kept clean of bone fragments and made such that bleeding was minimized. The skull was covered with a pool of saline and with Quik-Cast to protect and keep moist craniotomies before recording. Mice recovered in their homecages before recording. Immediately prior to recording set up, mice were very briefly anesthetized with isoflurane and implanted with an IV catheter system (BD Saf-T-Intima Closed IV Catheter System: 22G ×¾″, containing an integrated Y adaptor and safety lock) to their intraperitoneal cavity and affixed with glue. […] While still anesthetized, mice were headfixed and tubing was secured stably to a custom mouse holder by tape. Quik-Cast was removed from the skull, and craniotomies were briefly cleaned before being submerged in a pool of saline. Four Neuropixels 1.0 probes^43,44, were grounded together with the mouse reference electrode, coated with red fixable dye (CM-Dil, ThermoFisher), positioned over each craniotomy, and carefully inserted at approximately 15 degrees from the vertical axis to depths of 4-5 mm at a rate of approximately 3 um/s. Following the completion of all insertions, the probes were allowed to rest for at least 10 minutes before the recording began. 30 kHz data was acquired from the four probes simultaneously using the Neuropixels control system (as described in the User Manual) and SpikeGLX software (billkarsh.github.io/SpikeGLX/). The four acquisitions were synchronized using a common squarewave signal recorded for all probes and aligned to the nearest pulse edge. Following the beginning of recording, a 20-minute baseline period of activity was collected. […]

[3] = system: retrosplenial cortex (RSP); assay: Fiber photometry in RSP (GCaMP6m); type: in vivo, mouse
Text: A 405 nm and 470 nm LED illumination (Thorlabs) was combined (425 nm longpass, Thorlabs DMLP425) and coupled into a fiber optic patch cord (400 μm diameter, 0.48 NA, Doric Lenses) using a longpass dichroic (505 nm, Thorlabs DMLP505) and a fixed-focused coupler/collimator with a standard FC connector (F240FC-A, NA 0.51, f =7.9 mm)^47,48. Each illumination channel was frequency modulated using the sync output from a lock-in amplifier (SR810 DSP, Stanford Research Systems). GCaMP fluorescence was collected through the same patchcord and delivered through a bandpass emission filter (Semrock, FF01-520/35) onto a NewFocus 2151 femtowatt silicon photoreceiver (Newport, DC Low mode). The signal from the photoreceiver was split into each lock-in amplifier, and the filtered outputs were digitized at 5 kHz using a NIDAQ (National Instruments PCIe-6353) and saved using a MATLAB (MathWorks) acquisition script.
Analysis was performed using custom MATLAB (MathWorks) scripts. Widefield imaging videos were registered to a 2D top-projection atlas generated from the annotated Allen Brain Atlas volume, version CCFv2, in MATLAB (MathWorks), using an affine transformation computed from four manually selected control points. Each video was DF/F normalized, using the median for each pixel over the entire time series as F. The 410 nm channel was then temporally smoothed using a moving average (width=400 ms). The smoothed 410 nm DF/F signal for each pixel was regressed onto the 488 nm DF/F signal for the corresponding pixel, and the regression coefficients were used to scale the 410 nm channel to the 488 nm channel. This scaled 410 nm DF/F signal was then subtracted from the 488 nm DF/F signal to produce a normalized signal for each pixel. For quantification, activity traces were extracted from points centered in five cortical regions (visual, somatosensory, parietal, motor, retrosplenial) on the left hemisphere of the brain. The video data was Gaussian smoothed spatially (radius=2 pixels). Similarly, for fiber photometry recordings, the 410 nm signal was regressed onto the 488 nm signal, the 410 nm signal was scaled by the regression coefficients, and then subtracted from the 488 nm signal.
Each trace (corresponding to either a fiber photometry signal, a cellular two-photon signal, a widefield regional centroid, a widefield pixel, an sEEG trace, or a smoothed spike rate Neuropixels trace) was z-scored, and the power spectral density (PSD) was then estimated using Welch's method (pwelch( ) in Matlab), with a window size of 10*fs (15*fs for human sEEG) where fs is the sampling rate of the signal. The average band power within a specified band (i.e. 1-3 Hz) was then computed by integrating the PSD estimate (bandpower in Matlab). For displaying the traces of individual cells, traces were each zscored by subtracting the mean value of the trace (across the whole recorded time window) and dividing by the standard deviation of the trace. Unless otherwise indicated, the PSD was computed across the time window from minutes 10 to 11 post-injection.
Stereotaxic Surgery: Adult male and female HCN1^f/f, NR1^f/f, or wildtype C57/B16 were injected bilaterally in two retrosplenial locations (AP −3.1 and −3.4, ML+/−0.5, DV −0.5) with 1 uL of AAV8-Ef1a-mCherry-IRES-Cre (titer 5E11) and AAVdj-Ef1a-DIO-GCaMP6m (titer 1E13). A 400-micron optical fiber was implanted over one injection location. At least four weeks were allowed for viral expression and gene disruption before photometry recording. For gene knockout behavior experiments, injections of AAVdj-Ef1a-Cre were made at (AP −2.7, −3.1 and −3.5, ML+/−0.5, DV −1.35 and −0.70). For gene knockout control behavioral experiments, two retrosplenial injections of AAVdj-Efla-Cre were made in experimental animals.

mice [4] = assay: Righting reflex assay; type: in vivo, mouse
Text: Righting Reflex Assay: Mice were held at the neck and tail, rotated to supine position on a flat surface, and quickly released. Time to right was quantified as moment of release to moment when all 4 legs touched the ground. A five second threshold was used to classify righting success (less than 5 seconds) from failure (more than 5 seconds). […] Illumination began for 30 seconds, and then the mouse was swiftly inverted onto the flat surface.

mice [5] = assay: Observation for seizure-like signs after ketamine; type: in vivo, mouse; conditions: dissociative doses of ketamine
Text: One characteristic of seizures is increased synchrony. While the ketamine-induced rhythm involved increased synchrony in neuronal firing, the initiation, spread, maintenance/termination, and behavior were distinguishable from typical seizures.

humans = conditions: human; cited from earlier work
[6] = controls (wild-type), 50 mg/kg ketamine

CNC1(c2ccccc2Cl)CCCCC1=O (stereo not shown) [ketamine]
Lowest tested dose causing the oscillation and behavioral effects (mouse): 25 mg/kg | Affective behavior (mice [1]; GRIN1 knockouts, ketamine): without recovery of affective behavior | Affective paw-licking (mice [1]; HCN1-KO mice with RSP Cre-virus, 50 mg/kg ketamine): strikingly restored affective paw-licking | Affective paw-licking (mice [1]; [6]): abolished affective paw-licking | Reflexive paw-flicks (mice [1]; [6]): preserving reflexive paw-flicks | Affective behaviors (mice [1]; ketamine 13 mg/kg): consistently preserved at 13 mg/kg | Affective behaviors (mice [1]; ketamine 25 mg/kg): selectively abolished at 25 mg/kg | Affective/emotional defensive behavior (paw-lick) (mice [1]; ketamine at 25 and 50 mg/kg): abolished affective/emotional | Motivational defensive behavior (jump-to-escape) (mice [1]; ketamine at 25 and 50 mg/kg): abolished | Reflexive responses (paw-flick) (mice [1]; ketamine dose series): did not reduce reflexive responses | Correlations of brain regions with RSP ([2]; 8-12 min after ketamine injection (50 mg/kg i.p.)): correlations with RSP were reduced | Coupling of anteromedial thalamic neurons with RSP ([2]; subanesthetic ketamine): oscillate out-of-phase with RSP | Coupling of laterodorsal and anteroventral thalamus ([2]; subanesthetic ketamine): became more-strongly correlated to each other and RSP | Rhythmicity of subcortical regions ([2]; subanesthetic ketamine): specific subcortical regions (inaccessible to cortical imaging) exhibiting increased rhythmicity | Glass's A, power 25 mg/kg vs 13 mg/kg (FIG. 3C) ([3]; 10 min after injection): 3.2 | Hedge's g effect-size, oscillation-power GRIN1-pre/GRIN1-post (FIG. 4E) ([3]; GRIN1 knockout, ketamine): 2.03 | Hedge's g effect-size, oscillation-power HCN1-pre/HCN1-post (FIG. 4E) ([3]; HCN1 knockout, ketamine): 1.02 | 1-3 Hz RSP oscillation ([3]; ketamine 25 mg/kg, widefield imaging and fiber photometry): revealed a 1-3 Hz oscillation at 25 mg/kg | Ketamine-induced oscillations ([3]; local RSP GRIN1 (NMDAR) knockout mice, four weeks after virus): significantly diminished; also recorded: partially attenuated | Ketamine-induced oscillations ([3]; local RSP HCN1 knockout mice, four weeks after virus): significantly diminished | Ketamine-induced oscillations ([3]; wild-type mice): preserved in wild-type | Hedge's g effect-size, oscillation-power WT-pre/WT-post (FIG. 4E) ([3]; wild-type, ketamine): 3.22 | Righting-reflex test for consciousness (mice [4]; anesthetic ketamine 200 mg/kg): abolished by anesthetic ketamine | Righting-reflex test for consciousness (mice [4]; subanesthetic ketamine doses): preserved in all animals | Righting of postural inversion (mice [4]; wild-type and knockout mice, ketamine): all mice successfully-righted postural inversion | Seizure-like signs (mice [5]): no rigidity, convulsive movements, absence-like states, or salivation/rearing/falling were observed | Dose at which potent dissociation is consistently reported (humans): 2 to 3 mg/kg | Doses for anti-depressant effects (humans): 0.3 to 1 mg/kg
